Data published in ChEMBL document CHEMBL3352542, “Synthesis, biological evaluation and molecular modeling study of 2-(1,3,4-thiadiazolyl-thio and 4-methyl-thiazolyl-thio)-quinazolin-4-ones as a new class of DHFR inhibitors” (Bioorg Med Chem Lett, 2014).
Active and inactive are the calls of the source.

Key:
[1] = molecular target: T1, Dihydrofolate reductase (Bos taurus, UniProt P00376); test: Inhibition of bovine liver DHFR
T1 sequence (P00376 whole entry): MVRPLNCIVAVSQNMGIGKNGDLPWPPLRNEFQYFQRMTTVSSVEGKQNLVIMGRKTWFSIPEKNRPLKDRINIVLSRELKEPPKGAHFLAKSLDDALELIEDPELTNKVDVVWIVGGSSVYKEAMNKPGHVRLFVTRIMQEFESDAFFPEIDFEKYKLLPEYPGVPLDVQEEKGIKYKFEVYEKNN

[2] = test system: Staphylococcus aureus; test: Antimicrobial activity against Staphylococcus aureus assessed as inhibition zone at 200 ug/disk after 24 hrs by disc-diffusion method; type: functional; settings: read-out: IZ
[3] = test system: Bacillus subtilis; test: Antimicrobial activity against Bacillus subtilis assessed as inhibition zone at 200 ug/disk after 24 hrs by disc-diffusion method; type: functional; settings: read-out: IZ
[4] = test system: Escherichia coli; test: Antimicrobial activity against Escherichia coli assessed as inhibition zone at 200 ug/disk after 24 hrs by disc-diffusion method; type: functional; settings: read-out: IZ
[5] = test system: Pseudomonas aeruginosa; test: Antimicrobial activity against Pseudomonas aeruginosa assessed as inhibition zone at 200 ug/disk after 24 hrs by disc-diffusion method; type: functional; settings: read-out: IZ
[6] = test system: Candida albicans; test: Antimicrobial activity against Candida albicans assessed as inhibition zone at 200 ug/disk after 24 hrs by disc-diffusion method; type: functional; settings: read-out: IZ
[7] = test system: Staphylococcus aureus; test: Antimicrobial activity against Staphylococcus aureus assessed as inhibition of visible growth after 24 hrs by disc-diffusion method; type: functional, organism-based
[8] = test system: Bacillus subtilis; test: Antimicrobial activity against Bacillus subtilis assessed as inhibition of visible growth after 24 hrs by disc-diffusion method; type: functional, organism-based
[9] = test system: CCRF-CEM; test: Growth inhibition of human CCRF-CEM cells at 10 uM after 48 hrs; type: functional
[10] = test system: HL-60(TB); test: Growth inhibition of human HL-60(TB) cells at 10 uM after 48 hrs; type: functional
[11] = test system: K562; test: Growth inhibition of human K562 cells at 10 uM after 48 hrs; type: functional
[12] = test system: MOLT-4; test: Growth inhibition of human MOLT4 cells at 10 uM after 48 hrs; type: functional
[13] = test system: RPMI-8226; test: Growth inhibition of human RPMI8226 cells at 10 uM after 48 hrs; type: functional
[14] = test system: SR; test: Growth inhibition of human SR cells at 10 uM after 48 hrs; type: functional
[15] = test system: A549; test: Growth inhibition of human A549 cells at 10 uM after 48 hrs; type: functional
[16] = test system: HOP-92; test: Growth inhibition of human HOP92 cells at 10 uM after 48 hrs; type: functional
[17] = test system: NCI-H226; test: Growth inhibition of human NCI-H226 cells at 10 uM after 48 hrs; type: functional
[18] = test system: NCI-H23; test: Growth inhibition of human NCI-H23 cells at 10 uM after 48 hrs; type: functional
[19] = test system: NCI-H460; test: Growth inhibition of human NCI-H460 cells at 10 uM after 48 hrs; type: functional
[20] = test system: NCI-H522; test: Growth inhibition of human NCI-H522 cells at 10 uM after 48 hrs; type: functional
[21] = test system: COLO 205; test: Growth inhibition of human COLO205 cells at 10 uM after 48 hrs; type: functional
[22] = test system: HCC 2998; test: Growth inhibition of human HCC2998 cells at 10 uM after 48 hrs; type: functional
[23] = test system: HCT-116; test: Growth inhibition of human HCT116 cells at 10 uM after 48 hrs; type: functional
[24] = test system: HCT-15; test: Growth inhibition of human HCT15 cells at 10 uM after 48 hrs; type: functional
[25] = test system: HT-29; test: Growth inhibition of human HT-29 cells at 10 uM after 48 hrs; type: functional
[26] = test system: KM12; test: Growth inhibition of human KM12 cells at 10 uM after 48 hrs; type: functional
[27] = test system: SW-620; test: Growth inhibition of human SW620 cells at 10 uM after 48 hrs; type: functional
[28] = test system: SF-268; test: Growth inhibition of human SF268 cells at 10 uM after 48 hrs; type: functional
[29] = test system: SF-295; test: Growth inhibition of human SF295 cells at 10 uM after 48 hrs; type: functional
[30] = test system: SF-539; test: Growth inhibition of human SF539 cells at 10 uM after 48 hrs; type: functional
[31] = test system: SNB-19; test: Growth inhibition of human SNB19 cells at 10 uM after 48 hrs; type: functional
[32] = test system: SNB-75; test: Growth inhibition of human SNB75 cells at 10 uM after 48 hrs; type: functional
[33] = test system: U-251; test: Growth inhibition of human U251 cells at 10 uM after 48 hrs; type: functional
[34] = test system: LOX IMVI; test: Growth inhibition of human LOXIMVI cells at 10 uM after 48 hrs; type: functional
[35] = test system: Malme-3M; test: Growth inhibition of human MALME-3M cells at 10 uM after 48 hrs; type: functional
[36] = test system: M14; test: Growth inhibition of human M14 cells at 10 uM after 48 hrs; type: functional
[37] = test system: MDA-MB-435; test: Growth inhibition of human MDA-MB-435 cells at 10 uM after 48 hrs; type: functional
[38] = test system: SK-MEL-5; test: Growth inhibition of human SK-MEL-5 cells at 10 uM after 48 hrs; type: functional
[39] = test system: UACC-257; test: Growth inhibition of human UACC257 cells at 10 uM after 48 hrs; type: functional
[40] = test system: UACC-62; test: Growth inhibition of human UACC62 cells at 10 uM after 48 hrs; type: functional
[41] = test system: OVCAR-3; test: Growth inhibition of human OVCAR3 cells at 10 uM after 48 hrs; type: functional
[42] = test system: OVCAR-4; test: Growth inhibition of human OVCAR4 cells at 10 uM after 48 hrs; type: functional
[43] = test system: OVCAR-5; test: Growth inhibition of human OVCAR5 cells at 10 uM after 48 hrs; type: functional
[44] = test system: OVCAR-8; test: Growth inhibition of human OVCAR8 cells at 10 uM after 48 hrs; type: functional
[45] = test system: NCI/ADR-RES; test: Growth inhibition of human NCI-ADR-RES cells at 10 uM after 48 hrs; type: functional
[46] = test system: 786-0; test: Growth inhibition of human 786-0 cells at 10 uM after 48 hrs; type: functional
[47] = test system: A498; test: Growth inhibition of human A498 cells at 10 uM after 48 hrs; type: functional
[48] = test system: ACHN; test: Growth inhibition of human ACHN cells at 10 uM after 48 hrs; type: functional
[49] = test system: CAKI-1; test: Growth inhibition of human CAKI-1 cells at 10 uM after 48 hrs; type: functional
[50] = test system: RXF 393; test: Growth inhibition of human RXF393 cells at 10 uM after 48 hrs; type: functional
[51] = test system: SN12C; test: Growth inhibition of human SN12C cells at 10 uM after 48 hrs; type: functional
[52] = test system: TK-10; test: Growth inhibition of human TK10 cells at 10 uM after 48 hrs; type: functional
[53] = test system: UO-31; test: Growth inhibition of human UO31 cells at 10 uM after 48 hrs; type: functional
[54] = test system: PC-3; test: Growth inhibition of human PC3 cells at 10 uM after 48 hrs; type: functional
[55] = test system: MCF7; test: Growth inhibition of human MCF7 cells at 10 uM after 48 hrs; type: functional
[56] = test system: MDA-MB-231; test: Growth inhibition of human MDA-MB-231 cells at 10 uM after 48 hrs; type: functional
[57] = test system: Hs-578T; test: Growth inhibition of human Hs 578T cells at 10 uM after 48 hrs; type: functional
[58] = test system: BT-549; test: Growth inhibition of human BT549 cells at 10 uM after 48 hrs; type: functional
[59] = test system: T47D; test: Growth inhibition of human T47D cells at 10 uM after 48 hrs; type: functional
[60] = test system: MDA-MB-468; test: Growth inhibition of human MDA-MB-468 cells at 10 uM after 48 hrs; type: functional

COc1cc2nc(Sc3sc(N)nc3C)n(Cc3ccccc3)c(=O)c2cc1OC
20 mm: zone of inhibition at 200 µg/disc [2]
6 µM: IC50 [1]
inactive: growth inhibition (GI) [9] | growth inhibition (GI) [10] | growth inhibition (GI) [11] | growth inhibition (GI) [12] | growth inhibition (GI) [13] | growth inhibition (GI) [14] | growth inhibition (GI) [15] | growth inhibition (GI) [16] | growth inhibition (GI) [17] | growth inhibition (GI) [18] | growth inhibition (GI) [19] | growth inhibition (GI) [20] | growth inhibition (GI) [21] | growth inhibition (GI) [22] | growth inhibition (GI) [23] | growth inhibition (GI) [24] | growth inhibition (GI) [25] | growth inhibition (GI) [26] | growth inhibition (GI) [27] | growth inhibition (GI) [28] | growth inhibition (GI) [29] | growth inhibition (GI) [30] | growth inhibition (GI) [31] | growth inhibition (GI) [32] | growth inhibition (GI) [33] | growth inhibition (GI) [34] | growth inhibition (GI) [35] | growth inhibition (GI) [36] | growth inhibition (GI) [37] | growth inhibition (GI) [38] | growth inhibition (GI) [39] | growth inhibition (GI) [40] | growth inhibition (GI) [41] | growth inhibition (GI) [42] | growth inhibition (GI) [43] | growth inhibition (GI) [44] | growth inhibition (GI) [45] | growth inhibition (GI) [46] | growth inhibition (GI) [47] | growth inhibition (GI) [48] | growth inhibition (GI) [49] | growth inhibition (GI) [50] | growth inhibition (GI) [51] | growth inhibition (GI) [52] | growth inhibition (GI) [53] | growth inhibition (GI) [54] | growth inhibition (GI) [55] | growth inhibition (GI) [56] | growth inhibition (GI) [57] | growth inhibition (GI) [58] | growth inhibition (GI) [59] | growth inhibition (GI) [60]
active: Activity [7] | Activity [8]
24 mm: zone of inhibition at 200 µg/disc [3]
8 mm: zone of inhibition at 200 µg/disc [4] | zone of inhibition at 200 µg/disc [5] | zone of inhibition at 200 µg/disc [6]

Cc1ccc(-n2c(Sc3sc(N)nc3C)nc3ccc(C)cc3c2=O)cc1
7 µM: IC50 [1]
inactive: growth inhibition (GI) [9] | growth inhibition (GI) [10] | growth inhibition (GI) [11] | growth inhibition (GI) [12] | growth inhibition (GI) [13] | growth inhibition (GI) [14] | growth inhibition (GI) [15] | growth inhibition (GI) [16] | growth inhibition (GI) [17] | growth inhibition (GI) [18] | growth inhibition (GI) [19] | growth inhibition (GI) [20] | growth inhibition (GI) [21] | growth inhibition (GI) [22] | growth inhibition (GI) [23] | growth inhibition (GI) [24] | growth inhibition (GI) [25] | growth inhibition (GI) [26] | growth inhibition (GI) [27] | growth inhibition (GI) [28] | growth inhibition (GI) [29] | growth inhibition (GI) [30] | growth inhibition (GI) [31] | growth inhibition (GI) [32] | growth inhibition (GI) [33] | growth inhibition (GI) [34] | growth inhibition (GI) [35] | growth inhibition (GI) [36] | growth inhibition (GI) [37] | growth inhibition (GI) [38] | growth inhibition (GI) [39] | growth inhibition (GI) [40] | growth inhibition (GI) [41] | growth inhibition (GI) [42] | growth inhibition (GI) [43] | growth inhibition (GI) [44] | growth inhibition (GI) [45] | growth inhibition (GI) [46] | growth inhibition (GI) [47] | growth inhibition (GI) [48] | growth inhibition (GI) [49] | growth inhibition (GI) [50] | growth inhibition (GI) [51] | growth inhibition (GI) [52] | growth inhibition (GI) [53] | growth inhibition (GI) [54] | growth inhibition (GI) [55] | growth inhibition (GI) [56] | growth inhibition (GI) [57] | growth inhibition (GI) [58] | growth inhibition (GI) [59] | growth inhibition (GI) [60]
8 mm: zone of inhibition at 200 µg/disc [2] | zone of inhibition at 200 µg/disc [3] | zone of inhibition at 200 µg/disc [4] | zone of inhibition at 200 µg/disc [5] | zone of inhibition at 200 µg/disc [6]
